According to publication PMC9321718 (Pharmaceuticals, 2022):
In brackets after ≈: the same amount, converted by molar mass. Several values for one entry are separate records, joined by “and”; a condition that tells them apart may be missing. Equal entries are not always repeated. Where two headings read alike, the source gives them in different places.

What was measured:
[1] = system: B. subtilis (NCIB 8054); test: Agar diffusion test, MIC; assay type: cell-based, Bacillus subtilis; settings: B. subtilis; for antibacterial activity of CD complex: up to 3–5 mg/mL concentration; for MIC: agar diffusion test, LB pH 7.2, 37 °C, 20 h
Procedure: (§1) The strains used in this study were Escherichia coli (NCIB 12210) and Bacillus subtilis (NCIB 8054) from National Resource Center All-Russian collection of industrial microorganisms SIC “Kurchatov Institute”). The culture was cultivated for 18–20 h at 37 °C to CFU ≈ 5 × 10^6 – 8 × 10^6 (determined by A600) in liquid nutrient medium Luria–Bertani (pH 7.2): E. coli—without stirring, B. subtilis—with stirring 180 rpm.
(§2) The study of the antibacterial effect of Lev and adjuvants was carried out by (a) agar diffusion test and (b) broth micro-dilution method. (a) A measured 500 µL of 100-fold culture dilution was evenly distributed over a solid nutrient medium (LB, pH 7.2) on a Petri dish. After 20 min, agar disks with a diameter of 9 mm were removed from the cups and 50 µL of the test samples were placed in the formed wells at the required concentration in a sterile PBS buffer (see Section 3.3 (2)). After 30 min, Petri dishes were placed in a 37 °C thermostat. After 24 h, the diameters of the growth inhibition zones were measured. Minimum inhibitory concentrations (MICs) are determined as the infimum of multiple concentrations of an antimicrobial that inhibits the visible growth of a microorganism after overnight incubation. (b) According to the standard broth micro-dilution method, 200 µL of the overnight culture (5 × 10^6 CFU) was placed into a 96 micro-titer plate wells. Then 50 µL of tested samples was added. The range of tested Lev concentration was 4–200 ng/mL, adjuvants concentration was in the range of 0.008–2 mg/mL. Optical density measurements at 600 nm were taken at various times (0, 3, and 18 h) to determine the number of cells. The dependence of CFU (determined by A600) on the concentration of Lev, APAB or terpenoid (briefly X) was approximated according to the Boltzmann equation (Origin software): CFU = (control CFU)/(1 + exp(([X] − MIC50)/constant value)). MIC50 and MIC90 are defined as concentrations at which the inhibition of bacterial growth by 50 and 90% is noticeable, respectively. In other words, the concentration at which the ordinate value (CFU) is equal to 50 or 10% of the control sample minus the background.

[2] = system: E. coli (NCIB 12210); test: Agar diffusion test, MIC; assay type: cell-based, Escherichia coli; settings: for antibacterial activity of CD complex: up to 3–5 mg/mL concentration; for MIC: LB pH 7.2, 37 °C, 20 h
Procedure: as §1, §2

[3] = Formation of inclusion complexes with MCD (UV spectroscopy, Hill linearization); assay type: physicochemical; settings: for EE, % / LC, % / n: MCD; for EE, % / LC, %: C(MCD) = 0.01 M, pH 6.2, 22 °C; for n: Xaq + n MCDaq ⇌ X·nMCDaq, 5 mM sodium phosphate buffer pH 6.2, 22 °C
Procedure: To optimize the system composition, similar experiments were carried out on the formation of EG and apiol inclusion complexes with HPCD (Figure S1). […] According to these changes, the dissociation constants of the EG–HPCD and apiol–HPCD complexes (Figure S2) were calculated by Hill’s equation (Table 1). […] The physicochemical parameters of the interaction of APAB and terpenoids (X) with CD were studied by determining the concentration of substances in the aqueous fraction ([APAB] + [APAB-MCD]) according to the calibration dependence (Figure 1C) for systems with a constant amount of the essential oil component X and the concentration gradient MCD (Table 1). Theta (θ) is a fraction of the bound substance X:θ = [X-MCD]/([X-MCD] + [X]) and was calculated based on the dependence of the absorption intensity X on the MCD concentration in the system in the form of a sigmoidal Hill curve with subsequent linearization (Section 3, Section 3.3 and Section 3.4).
The molar excess of CD varied from 0.04 to 10). Further, the complexes were incubated for 1 h at 37 °C and then centrifuged ([…], 15 min, Eppendorf tubes) to separate the insoluble fractions. Complexes were studied by UV and FTIR spectroscopy.
UV spectra of solutions (point 3.3.1) were recorded on the AmerSham Biosciences UltraSpec 2100 pro device (USA) three times in the range of 200–400 nm in a quartz cell Hellma 100–QS with an optical path of 1 cm. Background spectrum (5 mM sodium phosphate buffer (pH 6.2) with 50% EtOH) was subtracted as a blank.
(1) Calculation of the dissociation constants X–MCD and X–HPCD, where X is a “guest” compound, considering the equilibrium: Xaq + n MCDaq ↔ X·nMCDaq, where Kd = [MCDaq]^n · [Xaq]/[X·nMCDaq].
First, fitting of the curves of change of the analytical signal ξ (peak intensity or peak position) versus concentration of the MCD or HPCD or was carried out using the Hill equations: (1) ξ = ξ∞ · [MCD]^n/([MCD]^n + K^n), where ξ∞—horizontal asymptote; (2) ξ = ξ0 + (ξ∞–ξ0) · [MCD]^n/([MCD]^n + K^n). Second, calculation n and Kd values by Hill’s linearization in n-binding site model: lg (θ/(1 – θ)) = n · lg [L] – lg Kd, where θ = |(ξ – ξ0)/(ξ∞ − ξ0)|is a fraction of the bound substance. N in Hill equation—number of drug molecules per CD torus.
Calculations for the following items are performed when [MCD] = 0.01 M.

[4] = physchem; settings: 22 °C, pH 6.2, water
Procedure: (§3) (3) Solubility of X in water C0 = [Xaq] = A/(ε · l) was determined by UV absorbance after centrifugation of samples (10 min, 10,000× g). l = 1 cm. ε—molar absorbance coefficient (Figure 1C).

[5] = system: E. coli; test: Synergy of adjuvant-MCD with Lev-MCD, growth inhibition zones in agar; assay type: cell-based, Escherichia coli; settings: E. coli; for D, diameter of bacterial inhibition zone surrounding Lev–MCD with APAB-MCD / ϕLev = (D/DLev)^2 / FICI: CLev 0.1 μg/mL; for D, diameter of bacterial inhibition zone surrounding Lev–MCD with APAB-MCD: Lev-MCD + X-MCD (1:2), ±0.5; for ϕLev = (D/DLev)^2: ±0.1; for FICI: ±15%
Procedure: We obtained complex formulations containing adjuvants-MCD and Lev-MCD. These complexes were referred to as enhanced Lev. The synergy effect was studied at a constant concentration of Lev and a variable concentration of an enhancer. […] Based on the D/DLev ratio, the effectiveness of cooperative antibacterial action (ϕ) of the adjuvant and Lev was calculated. The fractional inhibitory concentration (FIC) parameter was introduced: at a fixed Lev concentration, the FIC of adjuvant corresponds to the minimum fractional adjuvant concentration at which the antibacterial effect was still manifest (MICadjuvant in the presence of Lev). The fractional inhibitory concentration index (FICI) characterizes the ratio of the active Lev and adjuvant concentrations to the MIC values of these substances individually: FICI=[Lev]/MIC(Lev)[…][adjuvant]/MIC(adjuvant) (see Section 3).
The FICI was interpreted as: synergism (<0.35), additivity (0.35–0.75), indifference (0.75–1.4), or antagonism (>1.4). FICI is designed to determine the type of Lev interaction with adjuvants.
as §2, with “After 24 h, the diameters of the growth inhibition zones were measured.” left out, “Optical density measurements at 600 nm were taken at various times (0, 3, and 18 h) to determine the number of cells.” left out, “MIC50 and MIC90 are defined as concentrations at which the inhibition of bacterial growth by 50 and 90% is noticeable, respectively.” left out
The FICI was interpreted as: synergism (<0.35), additivity (0.35–0.75), indifference (0.76–1.4), or antagonism (>1.4). The essence of this expression is to calculate the average change in the effective concentration compared to MIC. Note that the most important parameter corresponds to a decrease in MIC of Lev. However, FICI is designed to determine the type of interaction Lev with adjuvants.

[6] = MCD, cited from earlier work; for EE, %: C(MCD) = 0.01 M
[7] = system: E. coli (NCIB 12210); test: Broth micro-dilution method, MIC50/MIC90; assay type: cell-based, Escherichia coli
Procedure: as §1
as §2, with “In other words, the concentration at which the ordinate value (CFU) is equal to 50 or 10% of the control sample minus the background.” left out

[8] = system: B. subtilis (NCIB 8054); test: Broth micro-dilution method, MIC50/MIC90; assay type: cell-based; settings: Bacillus subtilis, NCIB8054
Procedure: as §1
The study of the antibacterial effect of Lev and adjuvants was carried out by (a) agar diffusion test and (b) broth micro-dilution method. (a) A measured 500 µL of 100-fold culture dilution was evenly distributed over a solid nutrient medium (LB, pH 7.2) on a Petri dish. […] After 24 h, the diameters of the growth inhibition zones were measured. Minimum inhibitory concentrations (MICs) are determined as the infimum of multiple concentrations of an antimicrobial that inhibits the visible growth of a microorganism after overnight incubation. […] The dependence of CFU (determined by A600) on the concentration of Lev, APAB or terpenoid (briefly X) was approximated according to the Boltzmann equation (Origin software): CFU = (control CFU)/(1 + exp(([X] − MIC50)/constant value)). […]

[9] = HPCD, cited from earlier work
[10] = Solubility of X in water and in the presence of MCD/HPCD (UV absorbance); settings: 22 °C, pH 6.2, water
Procedure: as §3

[11] = Escherichia coli, NCIB12210, broth micro-dilution

| Compound | antibacterial activity of CD complex [1] | antibacterial activity of CD complex [2] | EE, % [3] [%] | LC, % [3] [%] | n [3] | solubility [4] [µM] | decrease of MICLev in the presence of adjuvant [5] | D, diameter of bacterial inhibition zone surrounding Lev–MCD with APAB-MCD [5] [mm] | ϕLev = (D/DLev)^2 [5] | FICI [5] | further results |
| --- | --- | --- | --- | --- | --- | --- | --- | --- | --- | --- | --- |
| C=CC(C)(O)CCC=C(C)C (centres unmarked) [Linalool] | inactive | inactive | 80 ± 7 | 10 ± 1 | 1.2 ± 0.2 | 300 ± 50 (≈ 46.3 µg/mL) |  |  |  |  |  |
| C=CCc1cc2c(c(OC)c1OC)OCO2 [Dillapiol] |  |  | 56 ± 10 | 13 ± 1 | 1.3 ± 0.2 | 240 ± 50 (≈ 53.3 µg/mL) | 1.25–1.5 times | 13.75 | 1.3 | 0.04 |  |
| C=CCc1cc(OC)c2c(c1)OCO2 [Myristicin] | inactive | inactive | 99 ± 5 | 22 ± 2 | 0.67 ± 0.06 | 30 ± 7 (≈ 5.77 µg/mL) | 1.25–1.5 times | 13.25 | 1.2 | 0.04 | molar ratio APAB:CD of inclusion complexes [3]: 2 to 1; EE, % ([3]; listed as myristicin): more than 90% |
| C[C@H]1COc2c(N3CCN(C)CC3)c(F)cc3c(=O)c(C(=O)O)cn1c23 [Levofloxacin] |  |  |  |  |  |  |  |  |  |  | EE, % [6]: 99 ± 12%; EE, % ([6]; listed as Lev): more than 90%; LC, % [6]: 28.3 ± 0.4%; MIC ([1]; listed as Lev): 0.45 ± 0.05 µg/mL (≈ 1.25 µM); MIC ([1]; Bacillus subtilis, NCIB8054, read-out: MIC): 0.45 µg/mL (≈ 1.25 µM); MIC ([2]; Escherichia coli, NCIB12210, agar diffusion test, read-out: MIC): 0.1 µg/mL (≈ 0.277 µM); MIC ([2]; agar diffusion test, listed as Lev): 0.10 µg/mL and 0.10 ± 0.01 µg/mL; MIC50 [7, 11]: 0.01 ± 0.002 µg/mL (≈ 0.0277 µM); MIC90 [7, 11]: 0.025 ± 0.004 µg/mL (≈ 0.0692 µM); improvement of the effect of Lev by MCD ([7]; broth micro-dilution test): 30%; MIC50 [8]: 0.03 ± 0.01 µg/mL (≈ 0.083 µM); MIC90 [8]: 0.08 ± 0.02 µg/mL (≈ 0.221 µM); EE, % ([9]; 0.01 M): 91 ± 15%; LC, % [9]: 24.1 ± 0.5% |
| C=CCc1cc(OC)c(OC)c(OC)c1OC [Allyltetramethoxybenzene] | inactive | inactive | 45 ± 4 | 11 ± 1 | 1.74 ± 0.11 |  | 1.25–1.5 times | 12 | 1.1 | 0.50 | solubility [10]: 160 ± 20 µM |
